{"source": "patent US9180155B2", "about": "“Compositions from Nigella sativa” (Bio Nexus, Ltd, priority 2013, dated 2015)", "key": {"[1]": {"test_system": "adiponectin secretion in 3T3-L1 adipocytes", "assay": "Adiponectin secretion in t10-CLA-stimulated 3T3-L1 adipocytes", "type": "cell-based, murine", "experimental": "The 3T3-L1 murine fibroblast model as used in Example 4 was used in this experiments. Test materials were added four hours prior to the addition of t10-CLA at a concentration of 50 μM. Following overnight incubation, the supernatant media were sampled for determination of IL-6 and adiponectin. The adiponectin secreted into the medium was quantified using the Mouse Adiponectin Quantikine® Immunoassay kit with no modifications (R&D Systems, Minneapolis, Minn.). […] Test materials and were assayed in duplicate, while solvent controls were replicated eight times. IL-6 and adiponectin secretion were represented relative to the IL-6 and adiponectin secretion of the t10-CLA only controls as the IL-6 and adiponectin index and differences among the means were analyzed by the student's t-test assuming a five percent probability of a type I error (Excel; Microsoft, Redmond, Wash.)."}, "[2]": {"test_system": "IL-6 secretion in 3T3-L1 adipocytes", "assay": "IL-6 secretion in t10-CLA-stimulated 3T3-L1 adipocytes", "type": "cell-based, murine", "experimental": "The 3T3-L1 murine fibroblast model as used in Example 4 was used in this experiments. Test materials were added four hours prior to the addition of t10-CLA at a concentration of 50 μM. Following overnight incubation, the supernatant media were sampled for determination of IL-6 and adiponectin. The IL-6 secreted into the medium in response to […] stimulation was quantified using the Quantikine® Mouse IL-6 Immunoassay kit with no modifications (R&D Systems, Minneapolis, Minn.). […] All supernatant media samples were diluted 1:30 for quantification. Test materials and were assayed in duplicate, while solvent controls were replicated eight times. IL-6 and adiponectin secretion were represented relative to the IL-6 and adiponectin secretion of the t10-CLA only controls as the IL-6 and adiponectin index and differences among the means were analyzed by the student's t-test assuming a five percent probability of a type I error (Excel; Microsoft, Redmond, Wash.)."}, "Caco-2 monolayers": {"test_system": "Caco-2 monolayers", "assay": "t10-CLA-induced loss of TEER in Caco-2 monolayers", "type": "cell-based, human", "conditions": "t10-CLA 50 μM control = 100; μg TQ equivalents/mL: Thymoquinone 5.0, NS8 0.11, NS9 0.99, NS10 0.012, NSSpent#2 0.0005; NSSpent#1 5 μg/mL", "source_text": "The protocol for growing and differentiation the human Caco-2 colon andenocarcinoma cells was a modification of Protocol 3 as described by Yamashita et al. [[…]., and Furuyama, Y. 2002) New and better protocols for a short-term Caco-2 cell culture system, J Pharm Sci 91, 669-679]. Caco-2 Human Colon Adenocarcinoma cells were obtained from ATCC (Rockville, Md.; catalog #HTB-37) and maintained in a growth media: DMEM (Dulbecco's Modified Eagles Medium 1×) containing L-glutamine, glucose; Cellgro catalog #35-010CV with the following additions: (1) Penicillin (5,000 IU/mL)/Streptomycin (5,000 μg/mL) Cellgro catalog #30-001C1, (2) 10% FBS-Fetal Bovine Serum, Characterized; Hyclone catalog #SH30071.3, and (3) 1% NEAA-Non Essential Amino Acids; Cellgro catalog #25-025-CI; cells were cultured at 37 C in a humidified air-5% CO2 atmosphere in T175 flasks. BIOCOAT^R HTS Caco-2 Assay System kits (Becton Dickinson, N.J.; catalog #354801) consisting of 24-well fibrillar collagen coated inserts and feeder trays were used in all experiments and plated as follows. Media was removed from the T175 flasks and cells were washed with 10 mLs PBS (phosphate buffered saline 1× without Ca^++, without Mg^++; Cellgro #25-053-CI). […]"}, "AMPK": {"test_system": "AMPK", "assay": "AMPK activation (pT172-AMPK) in C2C12 myocytes", "type": "cell-based, Mouse", "conditions": "1 mM", "experimental": "Mouse C2C12 myoblasts were obtained from American Type Culture Collection (Manassas, Va.), and were maintained in Dulbecco's modified Eagle's medium (DMEM) supplemented with 10% fetal bovine serum at 37° C. under a humidified atmosphere of 5% CO2.\nC2C12 cells were seeded at an initial density of 6×10^4 cells/cm^2 in 24-well plates. For two days, the cells were allowed grow to reach confluence. Following confluence, the cells were forced to differentiate into myocytes by culturing in DMEM supplemented with 2% horse serum for seven days.\nOn Day 8 to 10 post differentiation, C2C12 myocytes were incubated in serum-free DMEM plus 0.5% BSA (bovine serum albumin) for three hours. […]\npT^172-AMPK was quantified using the Biosource AMPK Immunoassay Kit (Camarillo, Calif.) without modification. Protein content of the cell lysates was determined with the Active Motif fluorescent protein assay reagent (Carlsbad Calif., Hoefelschweiger, B. K., Duerkop, A., and Wolfbeis, O. S, Novel type of general protein assay using a chromogenic and fluorogenic amine-reactive probe. Anal Biochem 2005, 344, 122-9). A Packard Fluorocount spectrofluorometer (Model#BF 10000, Meridan, Conn.) was used for protein determination and a MEL312e BIO-KINETICS READER (Bio-Tek Instruments, Winooski, Vt.) was used for quantification of pT^172-AMPK. […]"}, "[3]": {"conditions": "t10-CLA 50 μM control = 100, μg TQ equivalents/mL: Thymoquinone 5.0, NS8 0.11, NS9 0.99, NS10 0.012, NSSpent#2 0.0005, NSSpent#1 5 μg/mL"}}, "data": [{"smiles": "CCCCC/C=C\\C=C\\CCCCCCCCC(=O)O", "note": "(single isomer, unassigned) [t10-CLA, Trans-10,Cis12-Conjugated Linoleic Acid Isomer]", "values": [{"measurement": "reduction in adiponectin secretion relative to controls", "setting": "[1]; 50 μM, overnight", "result": 65, "unit": "%"}, {"measurement": "Adiponectin Index", "setting": "[1]; [3]", "result": "100 ± 14"}, {"measurement": "increase in IL-6 secretion relative to controls", "setting": "[2]; 50 μM, overnight", "result": 8, "unit": "fold"}, {"measurement": "IL-6 Index", "setting": "[2]; [3]", "result": "100 ± 11"}, {"measurement": "Relative Loss of TEER", "setting": "Caco-2 monolayers", "result": "100 ± 5.81"}]}, {"smiles": "NC(=O)c1ncn([C@@H]2O[C@H](CO)[C@@H](O)[C@H]2O)c1N", "note": "[AICAR, 5-Aminoimidazole-4-carboxamide ribonucleoside]", "values": [{"measurement": "increase of pT172-AMPK relative to DMSO negative controls", "setting": "AMPK; 30 min, average over ten independent assays (95% CI=1.26-2.21)", "result": 1.67, "unit": "fold"}, {"measurement": "activation of AMPK", "setting": "AMPK; in assays run with N. sativa supercritical CO2 extracts", "result": 1.45, "unit": "fold"}]}]}
